Like-named read-outs stand apart in the source and are kept apart here.
How the values were obtained:
[1] = Carbamate stability constants with enthalpies and entropies, 15.0-45.0 °C; assay type: physicochemical
[2] = Protonation constants with enthalpies and entropies, 15.0-45.0 °C; assay type: physicochemical; details: for ΔH° of log K carb Prot 2 / ΔH° of log K prot / ΔS° of log K carb Prot 2 / ΔS° of log K prot: 15.0-45.0 °C
Text: From the data in Table 2 the first protonation constants of AMPy, log K prot, are similar to MEA and BZA and fall within a suitable range for CO2 capture processes. Importantly, the large and desired protonation enthalpy (ΔH°) observed for BZA is largely maintained in the AMPy derivatives (−53.9 to −46.6).

pKa at 25 °C = assay type: physicochemical
[3] = cited from earlier work
[4] = Bubble reactor precipitation propensity with pure CO2; assay type: physicochemical; details: pure CO2 at atmospheric pressure, ambient temperature, aqueous
Experimental: As part of the absorbent screening process concentrated aqueous 3-AMPy was evaluated for its potential to form solid precipitates in the presence of CO2 at high concentrations. […] A simple bubble reactor was utilised to determine the precipitation propensity while passing a pure CO2 gas stream at atmospheric pressure into a concentrated 3-AMPy solution held at ambient temperature. A concentration of 80 wt % 3-AMPy was achieved before precipitation of the carbamate salt was observed. While a precipitate was observed, it is unlikely this will occur in the pilot plant given the aggressive conditions employed in the simple lab based study. Furthermore, similar precipitation behaviour has been observed for other common aqueous amines in highly concentrated solutions but which are operated successfully in pilot plants.

[5] = water, Table 7, (aminomethyl)pyridines, read-out: pKa of conjugate acid at 25° C. in water

Compound: NCc1ccncc1 [4-AMPy, 4-(aminomethyl)pyridine]
- ΔH° of log K carb ([1]; 15.0-45.0 °C): −30.05 kJ · mol^−1
- ΔH° of log K carb Prot ([1]; 15.0-45.0 °C): −38.08 kJ · mol^−1
- ΔS° of log K carb ([1]; 15.0-45.0 °C): −58.97 J · mol^−1 · K^−1
- ΔS° of log K carb Prot ([1]; 15.0-45.0 °C): 4.91 J · mol^−1 · K^−1
- log K carb (carbamate stability constant) ([1]; 15 °C): 2.35
- log K carb Prot ([1]; 15 °C): 7.15
- log K carb (carbamate stability constant) ([1]; 25 °C): 2.22
- log K carb Prot ([1]; 25 °C): 6.95
- log K carb (carbamate stability constant) ([1]; 35 °C): 2.02
- log K carb Prot ([1]; 35 °C): 6.69
- log K carb (carbamate stability constant) ([1]; 45 °C): 1.84
- log K carb Prot ([1]; 45 °C): 6.52
- ΔH° of log K carb Prot 2 [2]: −25.5 kJ · mol^−1
- ΔH° of log K prot [2]: −53.9 kJ · mol^−1
- ΔS° of log K carb Prot 2 [2]: 15.3 J · mol^−1 · K^−1
- ΔS° of log K prot [2]: 19.6 J · mol^−1 · K^−1
- log K carb Prot 2 ([2]; 15 °C): 3.84
- log K prot ([2]; 15 °C): 8.77
- log K carb Prot 2 ([2]; 25 °C): 3.65
- log K prot ([2]; 25 °C): 8.43
- log K carb Prot 2 ([2]; 35 °C): 3.48
- log K prot ([2]; 35 °C): 8.08
- log K carb Prot 2 ([2]; 45 °C): 3.41
- log K prot ([2]; 45 °C): 7.86
- pKa (pKa at 25 °C; 25 °C, read-out: pKa): 8.6
- pKa (pKa at 25 °C; [5]): 8.4

Compound: Nc1cccnc1 [3-Aminopyridine, reference compound]
- pKa of conjugate acid at 25° C. in water ([3]; Table 7, aniline and aminopyridines): 6.3

Compound: OCC1CCCCN1 (stereo not shown) [2-piperidinylmethanol]
- pKa at 25° C. ([3]; Table 8): 10.1
- pKa at 25° C. [3]: 10.1

Compound: OCCC1CCCCN1 (stereo not shown) [2-piperidinylethanol]
- pKa at 25° C. ([3]; Table 8): 10.5
- pKa at 25° C. [3]: 10.5

Compound: NCc1cccnc1 [3-AMPy, 3-(aminomethyl)pyridine]
- concentration achieved before precipitation of the carbamate salt [4]: 80 wt %
- ΔH° of log K carb ([1]; 15.0-45.0 °C): −36.83 kJ · mol^−1
- ΔS° of log K carb ([1]; 15.0-45.0 °C): 82.97 J · mol^−1 · K^−1
- log K carb (carbamate stability constant) ([1]; 15 °C): 2.34
- log K carb (carbamate stability constant) ([1]; 25 °C): 2.11
- log K carb (carbamate stability constant) ([1]; 35 °C): 1.93
- log K carb (carbamate stability constant) ([1]; 45 °C): 1.70
- ΔH° of log K carb Prot 2 [2]: −14.5 kJ · mol^−1
- ΔH° of log K prot [2]: −50.6 kJ · mol^−1
- ΔS° of log K carb Prot 2 [2]: −15.2 J · mol^−1 · K^−1
- ΔS° of log K prot [2]: 0.8 J · mol^−1 · K^−1
- log K carb Prot 2 ([2]; 15 °C): 3.42
- log K prot ([2]; 15 °C): 9.11
- log K carb Prot 2 ([2]; 25 °C): 3.34
- log K prot ([2]; 25 °C): 8.83
- log K carb Prot 2 ([2]; 35 °C): 3.25
- log K prot ([2]; 35 °C): 8.51
- log K carb Prot 2 ([2]; 45 °C): 3.17
- log K prot ([2]; 45 °C): 8.26
- pKa (pKa at 25 °C; 25 °C, read-out: pKa): 8.6
- pKa (pKa at 25 °C; [5]): 8.8

Compound: NCc1ccccn1 [2-AMPy, 2-(aminomethyl)pyridine]
- ΔH° of log K carb Prot 2 [2]: −17.9 kJ · mol^−1
- ΔH° of log K prot [2]: −46.6 kJ · mol^−1
- ΔS° of log K carb Prot 2 [2]: 24.5 J · mol^−1 · K^−1
- ΔS° of log K prot [2]: −10.1 J · mol^−1 · K^−1
- log K carb Prot 2 ([2]; 15 °C): 1.96
- log K prot ([2]; 15 °C): 8.98
- log K carb Prot 2 ([2]; 25 °C): 1.86
- log K prot ([2]; 25 °C): 8.68
- log K prot ([2]; 35 °C): 8.41
- log K carb Prot 2 ([2]; 45 °C): 1.75
- log K prot ([2]; 45 °C): 8.19
- pKa (pKa at 25 °C; 25 °C, read-out: pKa): 8.6
- pKa (pKa at 25 °C; [5]): 8.7

Compound: NCCO [MEA, monoethanolamine, reference compound]
- ΔH° of log K carb ([1]; 15.0-45.0 °C): −18 kJ · mol^−1
- ΔS° of log K carb ([1]; 15.0-45.0 °C): −35 J · mol^−1 · K^−1
- log K carb (carbamate stability constant) ([1]; 15 °C): 1.85
- log K carb (carbamate stability constant) ([1]; 25 °C): 1.76
- log K carb (carbamate stability constant) ([1]; 35 °C): 1.66
- log K carb (carbamate stability constant) ([1]; 45 °C): 1.55

Compound: OCC1CCNCC1 [4-piperidinylmethanol]
- pKa at 25° C. ([3]; Table 8): 10.6
- pKa at 25° C. [3]: 10.6

Compound: NCc1ccccc1 [BZA, benzylamine, reference compound]
- ΔH° of log K carb ([1]; 15.0-45.0 °C): −36 kJ · mol^−1
- ΔS° of log K carb ([1]; 15.0-45.0 °C): −82 J · mol^−1 · K^−1
- log K carb (carbamate stability constant) ([1]; 15 °C): 2.20
- log K carb (carbamate stability constant) ([1]; 25 °C): 2.01
- log K carb (carbamate stability constant) ([1]; 35 °C): 1.81
- log K carb (carbamate stability constant) ([1]; 45 °C): 1.58
- ΔH° of log K prot [2]: −59.5 kJ · mol^−1
- ΔS° of log K prot [2]: 20 J · mol^−1 · K^−1
- log K prot ([2]; 15 °C): 9.77
- log K prot ([2]; 25 °C): 9.43
- log K prot ([2]; 35 °C): 8.95
- log K prot ([2]; 45 °C): 8.61

Reference: US12343676B2, “Process and system for capture of carbon dioxide” (COMMONWEALTH SCIENTIFIC AND INDUSTRIAL RESEARCH ORGANISATION, priority 2017, dated 2025)
